From US12590088B2, “Jak inhibitor compound and pharmaceutical composition including the same” (KOREA PHARMA CO., LTD., priority 2019, dated 2026)

What was measured:
[1] = molecular target: JAK1 (Homo sapiens, UniProt P23458); experiment: JAK1 IC50 measurement; format: biochemical
[2] = molecular target: JAK2 (Homo sapiens, UniProt O60674); experiment: JAK2 IC50 measurement; format: biochemical
[3] = molecular target: T1, JAK3 (Homo sapiens, UniProt P52333); experiment: JAK3 IC50 measurement; format: biochemical
T1 sequence (P52333 1-1124): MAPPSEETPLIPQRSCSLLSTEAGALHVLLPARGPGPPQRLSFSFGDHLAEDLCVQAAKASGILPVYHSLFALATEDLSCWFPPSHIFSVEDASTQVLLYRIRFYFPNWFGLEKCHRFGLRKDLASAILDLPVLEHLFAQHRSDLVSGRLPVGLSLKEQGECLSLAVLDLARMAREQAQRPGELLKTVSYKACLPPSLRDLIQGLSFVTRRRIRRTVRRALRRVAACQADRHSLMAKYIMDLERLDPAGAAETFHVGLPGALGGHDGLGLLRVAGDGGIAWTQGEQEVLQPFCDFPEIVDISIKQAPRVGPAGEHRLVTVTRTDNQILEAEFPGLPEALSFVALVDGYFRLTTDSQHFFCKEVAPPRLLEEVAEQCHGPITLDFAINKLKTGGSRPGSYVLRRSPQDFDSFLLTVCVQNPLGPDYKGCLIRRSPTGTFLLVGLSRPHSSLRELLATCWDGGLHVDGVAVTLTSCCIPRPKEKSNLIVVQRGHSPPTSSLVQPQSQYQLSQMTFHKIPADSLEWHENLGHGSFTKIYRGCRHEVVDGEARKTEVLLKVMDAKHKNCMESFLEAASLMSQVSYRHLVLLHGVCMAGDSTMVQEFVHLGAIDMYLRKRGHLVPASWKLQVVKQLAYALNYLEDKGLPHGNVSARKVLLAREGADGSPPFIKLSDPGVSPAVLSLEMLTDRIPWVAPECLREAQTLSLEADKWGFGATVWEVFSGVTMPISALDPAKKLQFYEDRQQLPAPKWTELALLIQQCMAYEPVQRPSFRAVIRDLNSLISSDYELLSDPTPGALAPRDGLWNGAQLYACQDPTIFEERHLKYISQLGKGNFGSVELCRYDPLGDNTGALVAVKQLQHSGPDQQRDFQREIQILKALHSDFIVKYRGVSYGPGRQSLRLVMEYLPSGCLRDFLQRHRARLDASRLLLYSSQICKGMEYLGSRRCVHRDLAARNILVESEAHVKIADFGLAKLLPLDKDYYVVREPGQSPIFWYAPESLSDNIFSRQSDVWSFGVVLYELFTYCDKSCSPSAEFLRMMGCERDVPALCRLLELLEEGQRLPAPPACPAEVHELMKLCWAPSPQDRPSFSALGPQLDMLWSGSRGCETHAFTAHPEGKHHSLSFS

[4] = molecular target: TYK2 (Homo sapiens, UniProt P29597); experiment: TYK2 IC50 measurement; format: biochemical
[5] = molecular target: T1, JAK3; experiment: Cell-based assay on Janus kinase inhibitors, JAK3 (GI50)

TYK2, sequence (P29597 whole entry): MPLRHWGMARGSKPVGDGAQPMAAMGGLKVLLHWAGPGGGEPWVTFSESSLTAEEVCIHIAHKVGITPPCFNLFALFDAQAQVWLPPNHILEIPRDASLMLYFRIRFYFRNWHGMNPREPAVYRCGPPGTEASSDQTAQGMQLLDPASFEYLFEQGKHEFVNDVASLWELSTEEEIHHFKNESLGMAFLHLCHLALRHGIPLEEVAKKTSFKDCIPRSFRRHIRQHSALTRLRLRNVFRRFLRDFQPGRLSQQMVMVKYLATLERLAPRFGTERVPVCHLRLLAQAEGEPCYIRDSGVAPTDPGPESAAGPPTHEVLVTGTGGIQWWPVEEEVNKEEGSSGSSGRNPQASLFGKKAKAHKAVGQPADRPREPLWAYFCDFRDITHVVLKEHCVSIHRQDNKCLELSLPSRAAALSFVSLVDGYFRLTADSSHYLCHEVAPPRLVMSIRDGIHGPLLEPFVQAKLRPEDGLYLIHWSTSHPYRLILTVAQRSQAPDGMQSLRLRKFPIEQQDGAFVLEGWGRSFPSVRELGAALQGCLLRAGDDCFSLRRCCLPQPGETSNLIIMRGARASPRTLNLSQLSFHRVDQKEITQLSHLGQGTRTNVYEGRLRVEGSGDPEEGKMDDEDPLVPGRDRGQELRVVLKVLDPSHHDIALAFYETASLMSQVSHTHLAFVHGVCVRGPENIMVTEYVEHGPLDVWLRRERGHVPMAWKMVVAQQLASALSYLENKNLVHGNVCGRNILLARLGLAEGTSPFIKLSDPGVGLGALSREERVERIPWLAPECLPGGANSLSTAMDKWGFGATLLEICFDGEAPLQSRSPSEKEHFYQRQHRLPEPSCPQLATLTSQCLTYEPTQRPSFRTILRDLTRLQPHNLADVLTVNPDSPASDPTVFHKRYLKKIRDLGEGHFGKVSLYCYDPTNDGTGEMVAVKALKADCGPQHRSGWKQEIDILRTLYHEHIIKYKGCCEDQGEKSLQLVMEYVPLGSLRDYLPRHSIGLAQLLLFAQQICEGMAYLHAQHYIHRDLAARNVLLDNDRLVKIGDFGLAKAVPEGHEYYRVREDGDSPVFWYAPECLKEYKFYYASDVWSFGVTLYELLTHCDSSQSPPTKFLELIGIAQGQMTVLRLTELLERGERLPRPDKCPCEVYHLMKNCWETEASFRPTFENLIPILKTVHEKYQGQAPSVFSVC
JAK1, sequence (P23458 whole entry): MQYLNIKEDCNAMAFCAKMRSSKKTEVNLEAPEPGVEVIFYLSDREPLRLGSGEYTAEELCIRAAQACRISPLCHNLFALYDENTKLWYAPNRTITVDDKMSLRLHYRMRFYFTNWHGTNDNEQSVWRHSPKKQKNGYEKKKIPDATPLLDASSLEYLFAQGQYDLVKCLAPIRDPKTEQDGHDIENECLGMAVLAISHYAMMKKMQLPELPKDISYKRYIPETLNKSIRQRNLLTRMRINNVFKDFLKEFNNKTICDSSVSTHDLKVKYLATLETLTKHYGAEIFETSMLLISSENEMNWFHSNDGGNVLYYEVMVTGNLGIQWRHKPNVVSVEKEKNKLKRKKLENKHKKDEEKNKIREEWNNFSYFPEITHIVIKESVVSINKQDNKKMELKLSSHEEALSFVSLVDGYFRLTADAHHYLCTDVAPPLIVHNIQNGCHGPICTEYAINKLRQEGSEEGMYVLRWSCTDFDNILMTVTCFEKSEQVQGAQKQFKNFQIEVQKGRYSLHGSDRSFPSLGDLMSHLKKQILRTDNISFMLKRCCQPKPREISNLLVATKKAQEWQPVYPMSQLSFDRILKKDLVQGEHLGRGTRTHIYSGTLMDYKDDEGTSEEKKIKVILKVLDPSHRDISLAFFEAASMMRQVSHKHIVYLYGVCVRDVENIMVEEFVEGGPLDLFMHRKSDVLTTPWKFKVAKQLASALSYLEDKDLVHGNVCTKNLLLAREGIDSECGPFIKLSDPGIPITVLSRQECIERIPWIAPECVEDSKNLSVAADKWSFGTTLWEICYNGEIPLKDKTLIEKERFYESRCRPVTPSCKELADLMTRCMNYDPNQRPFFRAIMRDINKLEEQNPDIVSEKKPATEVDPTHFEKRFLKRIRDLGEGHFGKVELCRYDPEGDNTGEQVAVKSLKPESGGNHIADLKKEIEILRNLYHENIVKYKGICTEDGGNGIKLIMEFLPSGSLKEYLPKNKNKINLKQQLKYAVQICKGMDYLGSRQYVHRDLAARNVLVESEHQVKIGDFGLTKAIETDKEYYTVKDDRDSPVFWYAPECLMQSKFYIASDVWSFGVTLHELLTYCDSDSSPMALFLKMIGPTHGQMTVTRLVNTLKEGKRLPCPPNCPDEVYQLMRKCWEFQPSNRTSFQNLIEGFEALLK
JAK2, sequence (O60674 whole entry): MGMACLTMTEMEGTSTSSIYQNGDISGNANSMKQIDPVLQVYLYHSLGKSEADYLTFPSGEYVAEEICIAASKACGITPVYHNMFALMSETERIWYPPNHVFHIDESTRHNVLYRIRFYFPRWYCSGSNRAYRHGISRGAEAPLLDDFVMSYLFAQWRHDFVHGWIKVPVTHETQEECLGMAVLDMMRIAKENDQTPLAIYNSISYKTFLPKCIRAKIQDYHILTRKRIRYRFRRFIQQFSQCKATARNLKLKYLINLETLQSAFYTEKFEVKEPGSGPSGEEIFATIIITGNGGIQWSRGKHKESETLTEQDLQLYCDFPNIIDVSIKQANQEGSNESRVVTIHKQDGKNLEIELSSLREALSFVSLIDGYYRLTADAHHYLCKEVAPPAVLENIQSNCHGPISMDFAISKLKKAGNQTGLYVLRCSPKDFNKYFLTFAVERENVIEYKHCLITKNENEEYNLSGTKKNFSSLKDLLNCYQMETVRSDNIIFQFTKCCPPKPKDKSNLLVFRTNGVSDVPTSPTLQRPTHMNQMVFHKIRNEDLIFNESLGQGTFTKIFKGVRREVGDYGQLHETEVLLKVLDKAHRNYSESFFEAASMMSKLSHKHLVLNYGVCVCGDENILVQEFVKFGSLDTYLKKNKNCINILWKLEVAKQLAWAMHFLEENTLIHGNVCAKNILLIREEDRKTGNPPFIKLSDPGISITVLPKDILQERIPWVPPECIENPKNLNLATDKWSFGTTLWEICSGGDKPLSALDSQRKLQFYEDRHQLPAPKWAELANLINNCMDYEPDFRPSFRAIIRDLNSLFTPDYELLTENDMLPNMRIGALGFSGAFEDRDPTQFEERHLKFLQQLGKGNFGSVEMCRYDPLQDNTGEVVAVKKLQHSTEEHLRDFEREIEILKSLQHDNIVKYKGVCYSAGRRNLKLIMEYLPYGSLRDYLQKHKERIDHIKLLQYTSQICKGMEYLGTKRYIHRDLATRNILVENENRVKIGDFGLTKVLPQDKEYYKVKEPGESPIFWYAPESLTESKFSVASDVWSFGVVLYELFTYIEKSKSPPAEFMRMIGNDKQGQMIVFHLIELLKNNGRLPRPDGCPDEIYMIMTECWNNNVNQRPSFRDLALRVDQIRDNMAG

**Q.** Which IC50 [1] does the source give for `CNC(=O)c1cnc2[nH]ccc2c1N[C@H]1CCCN(Cc2cccc(Cl)c2)C1` [Compound 18a, (S)-4-((1-(3-Chlorobenzyl)piperidin-3-yl)amino)-N-methyl-1H-pyrrolo[2,3-b]pyridine-5-carboxamide] here?
**A.** 1.87 µM

**Q.** `CNC(=O)c1cnc2[nH]ccc2c1NC1CC(NCc2ccc(Cl)cc2)C1` (stereo not drawn) [Compound 16c, 4-((3-((4-Chlorobenzyl)amino)cyclobutyl)amino)-N-methyl-1H-pyrrolo[2,3-b]pyridine-5-carboxamide] was tested. Which IC50 [1] did it give?
**A.** 0.0138 µM

**Q.** Which results are given for `CNC(=O)c1cnc2[nH]ccc2c1NC1CC2CCC(C1)N2Cc1cccc(C#N)c1` (stereo not drawn) [Compound 17f, 4-((8-(3-Cyanobenzyl)-8-azabicyclo[3.2.1]octan-3-yl)amino)-N-methyl-1H-pyrrolo[2,3-b]pyridine-5-carboxamide]?
**A.** IC50 [2]: 0.0588 µM; IC50 [3]: 0.0447 µM; IC50 [4]: 0.0922 µM

**Q.** How did the GI50 [5] turn out when `CNC(=O)c1cnc2[nH]ccc2c1N[C@@H]1CCN(Cc2cccc(Cl)c2)[C@@H](C)C1` (relative stereo) [Compound 20b, 4-((trans-1-(3-Chlorobenzyl)-2-methylpiperidin-4-yl)amino)-N-methyl-11H-pyrrolo[2,3-b]pyridine-5-carboxamide] was run?
**A.** 8.24 µM

**Q.** `CNC(=O)c1cnc2[nH]ccc2c1NC1CC(NCc2cccc(Cl)c2)C1` (stereo not drawn) [Compound 16b, 4-((3-((3-Chlorobenzyl)amino)cyclobutyl)amino)-N-methyl-1H-pyrrolo[2,3-b]pyridine-5-carboxamide] was tested. Which IC50 [1] did it give?
**A.** 0.016 µM

**Q.** How did the IC50 [1] turn out when `CNC(=O)c1cnc2[nH]ccc2c1NC1CC(NCc2ccccc2)C1` (stereo not drawn) [Compound 16a, 4-((3-(Benzylamino)cyclobutyl)amino)-N-methyl-1H-pyrrolo[2,3-b]pyridine-5-carboxamide] was run?
**A.** 0.13 µM

**Q.** For `CNC(=O)c1cnc2[nH]ccc2c1N[C@H]1CCCN(Cc2cccc(OC)c2)C1` [Compound 18b, (S)-4-((1-(3-Methoxybenzyl)piperidin-3-yl)amino)-N-methyl-1H-pyrrolo[2,3-b]pyridine-5-carboxamide], which IC50 [1] is on record?
**A.** 0.697 µM

**Q.** What about the IC50 [2] of the same compound?
**A.** 0.533 µM

**Q.** And the “Selectivity for JAK1 JAK2/JAK1” value [2]?
**A.** 0.764

**Q.** And the IC50 [3]?
**A.** 3.43 µM

**Q.** What about the “Selectivity for JAK1 JAK3/JAK1” value ([3]; ratio of IC50 values) of the same compound?
**A.** 4.92

**Q.** And the IC50 [4]?
**A.** 1.79 µM

**Q.** What about the “Selectivity for JAK1 TYK2/JAK1” value [4] of the same compound?
**A.** 2.56
